“Also recorded” adds a separate entry of the source.

One data set relates to ileum (HCO3− secretion). The experiment in a line: pH stat HCO3− secretion in ileum. In kind it is cell-based, mouse. Particulars: for Effect on lumen Cl−-independent HCO3− secretion stimulated by glucose: 100 μM on lumen side, 6 mM glucose. Here is the method: pH stat studies are performed to determine whether HCO3^− secretion contributes to the unaccounted portion of the Isc. At least two modes of HCO3^− secretion in the mouse small intestine have been identified by the present inventors: 1) Cl^−-dependent, electroneutral Cl^−—HCO3^− exchange, and 2) Cl^−-independent, electrogenic HCO3^− secretion. […] Specifically, HCO3^−-free, poorly buffered solution is added to both sides of the tissues mounted in an Ussing chamber and both sides of the tissues are bubbled with 100% O2. Minimal HCO3^− secretion (0.1±0.01 mEq.h^−1.cm^−2, n=12) is recorded under such conditions. Subsequent addition of HCO3^−-containing buffered solution to the basolateral side and bubbling with 95% O2 and 5% CO2 on that side results in significant HCO3^− secretion 3.8±0.2 mEq.h^−1.cm^−2 (n=9). To determine whether lumen Cl^−-independent HCO3^− secretion plays a role in HCO3^− secretion (in the absence of lumen glucose), pH stat experiments are performed in the absence of lumen Cl^−. In the absence of lumen Cl^−, minimal HCO3^− secretion is recorded (0.4±0.1 pEq.h^−1.cm^−2) (FIG. 5A). […] The HCO3^− secretion in the presence of glucose could be due to a lumen Cl^−-dependent, electroneutral Cl—HCO3^− exchange or a lumen Cl^−-independent anion channel-mediated HCO3^− secretion. To assess the mechanism of glucose-stimulated HCO3^− secretion, glucose is added to the mucosal side.

Another data set concerns mouse ileum. The data set is described as follows: Bio-electric measurement of short-circuit current (Isc) in ileal sheets, Ussing chamber. The data set is classed as cell-based. Particulars: for Effect on glucose- or 3-OMG-stimulated increase in Isc: tissues pre-treated with H-89. The source says: (§1) Normally fed, 8-week-old, male NIH Swiss mice are sacrificed by CO2 inhalation, followed by cervical dislocation. The small intestine is gently removed, and the segment is washed and flushed in ice-cold Ringer's solution. Then the mucosa is separated from the serosa and the muscular layers by striping through the submucosal plane as previously described (Zhang et al. (2007) J Physiol 581(3):1221-1233). Following exsanguinations, ileal mucosa is obtained from a 10 cm segment close to the caecum. All experiments are approved by the University of Florida Institutional Animal Care and Use Committee.
Ion transport studies are performed on ileal sheets. Tissues are then mounted in between the two halves of an Ussing type-Lucite chamber with 0.3 cm^−2 exposed surface areas (P2304, Physiologic Instruments, San Diego, Calif., USA). Regular Ringer's solution (115 mM NaCl, 25 mM NaHCO3, 4.8 mM K2HPO4, 2.4 mM KH2PO4, 1.2 mM MgCl2 and 1.2 mM CaCl2) bubbled with 95% O2: 5% CO2 is used bilaterally as bathing solution for the tissues and the temperature is maintained constant at 37° C. The chambers are balanced to eliminate osmotic and hydrostatic forces. Resistance due to fluid is also compensated. The tissues are allowed to stabilize. The basal short-circuit current (Isc) and the corresponding conductance (G) are recorded using a computer controlled voltage/current clamp device (VCC MC-8, Physiologic Instruments).
Tissues paired with similar conductance and current are treated with or without 100 μM H-89 (Santa Cruz Biotechnology, Inc, Santa Cruz, Calif.), an irreversible protein kinase A (PKA) inhibitor. The tissues are incubated with H-89 for 30 minutes. Increasing concentrations of glucose (0.015-8 mM) are added every 5 minutes and the peak current is noted. Saturation kinetic constant is calculated for the corresponding Km and Vmax for treated and untreated tissues.
To investigate whether inhibition of glucose transport abolishes PKA-sensitive current, experiments are conducted using phlorizin (Santa Cruz Biotechnology, Inc, Santa Cruz, Calif., USA), a reversible competitive inhibitor of SGLT1. Specifically, ileal tissues mounted in Ussing chamber are treated with 100 μM phlorizin on the lumen side and glucose saturation kinetic studies are conducted.

Substrate in data set [1]: CO[C@@H]([C@H](O)[C@H](O)CO)[C@@H](O)C=O
The experiment in a line: Saturation kinetics of Na+-coupled glucose / 3-OMG transport (Isc, Ussing chamber, ileal sheets). In kind it is cell-based, mouse. Particulars: 37.0 °C.
From the text: as §1
Ion transport studies are performed on ileal sheets. Tissues are then mounted in between the two halves of an Ussing type-Lucite chamber with 0.3 cm^−2 exposed surface areas (P2304, Physiologic Instruments, San Diego, Calif., USA). […] The basal short-circuit current (Isc) and the corresponding conductance (G) are recorded using a computer controlled voltage/current clamp device (VCC MC-8, Physiologic Instruments).
Tissues paired with similar conductance and current are treated with or without 100 μM H-89 (Santa Cruz Biotechnology, Inc, Santa Cruz, Calif.), an irreversible protein kinase A (PKA) inhibitor. […] Saturation kinetic constant is calculated for the corresponding Km and Vmax for treated and untreated tissues. […]

Setting [2] is: FIG. 5B, lumen Cl− present, 100 μM DIDS, 10 μM NPPB.

`O=S(=O)(O)c1cc(N=C=S)ccc1C=Cc1ccc(N=C=S)cc1S(=O)(=O)O` [DIDS, 4,4′-diisothiocyano-2,2′-stilbenedisulfonic acid]: in the data set on ileum (HCO3− secretion) (setting [2]), the “Effect on HCO3− secretion in the absence of glucose” value is on record as “abolishes HCO3^− secretion”. With `O=S(=O)(NCCNC/C=C/c1ccc(Br)cc1)c1cccc2cnccc12` [Formulation H-89], the “Effect on glucose- or 3-OMG-stimulated increase in Isc” value in the data set with mouse ileum is given as “significant decrease in Isc”; with mouse ileum (listed as H89), “significant reduction”. As to `COc1ccc(Cl)cc1C(=O)NCCc1ccc(S(=O)(=O)NC(=O)NC2CCCCC2)cc1` [Glibenclamide, glibenclamide], the “Effect on lumen Cl−-independent HCO3− secretion stimulated by glucose” value in the data set with ileum (HCO3− secretion) is recorded as “inhibits”. Take `O=C(O)c1cc([N+](=O)[O-])ccc1NCCCc1ccccc1` [NPPB, 5-nitro-2-(3-phenylpropylamino)-benzoic acid]: in the data set on ileum (HCO3− secretion), the “Effect on lumen Cl−-independent HCO3− secretion stimulated by glucose” value was “inhibits”. In the data set on ileum (HCO3− secretion) (setting [2]), the “Effect on HCO3− secretion in the absence of glucose” value is reported as “does not have any inhibitory effect” and the “Effect on HCO3− secretion in the presence of 6 mM glucose” value was “inhibits”. `N=C(N)NC(=O)c1nc(Cl)c(N)nc1N` [amiloride]: in the data set on mouse ileum (10 μM on mucosal side of small intestine), the “Effect on Isc” value is listed as “no effect”. For the molecule `O=C(CCc1ccc(O)cc1)c1c(O)cc(O)cc1O[C@@H]1O[C@H](CO)[C@@H](O)[C@H](O)[C@H]1O` [phlorizin], in the data set with mouse ileum (100 μM phlorizin on lumen side), the “Effect on glucose- and/or 3-OMG-stimulated increase in Isc” value is “no response; also recorded: completely abolished”.

B1: SGLT1 (Mus musculus) (protein)
chain: MDSSTLSPAVTATDAPIPSYERIRNAADISVIVIYFVVVMAVGLWAMFSTNRGTVGGFFLAGRSMVWWPIGASLFASNIGSGHFVGLAGTGAAAGIAMGGFEWNALVLVVVLGWIFVPIYIKAGVVTMPEYLRKRFGGKRIQIYLSVLSLLLYIFTKISADIFSGAIFINLALGLDIYLAIFILLAITALYTITGGLAAVIYTDTLQTAIMLVGSFILTGFAFNEVGGYEAFMDKYMKAIPTKVSNGNFTAKEECYTPRADSFHIFRDPITGDMPWPGLIFGLAILALWYWCTDQVIVQRCLSAKNMSHVKADCTLCGYLKLLPMFLMVMPGMISRILYTEKIACVLPEECQKYCGTPVGCTNIAYPTLVVELMPNGLRGLMLSVMMASLMSSLTSIFNSASTLFTMDIYTKIRKKASEKELMIAGRLFILVLIGISIAWVPIVQSAQSGQLFDYIQSITSYLGPPIAAVFLLAIFCKRVNEQGAFWGLILGFLIGISRMITEFAYGTGSCMEPSNCPKIICGVHYLYFAIILFVISVITILIISFLTKPIPDVHLYRWCWSLRNSKEERIDLDAGEEEDIPEDSKDTIEIDTEAPQKKKGCFRRAYDLFCGLDQDKGPKMTKEEEEAMKMKMTDTSEKPLWRTVVNINGIILLAVAVFCHAYFA
notes: Ion transport studies are performed on ileal sheets; from tissue; host or cells: ileal mucosa of NIH Swiss mice
For orientation: Km means the substrate concentration at which the rate is half of its maximum. For B1, the Km in data set [1] (other: Table 1, no PKA inhibitor, n = 8 tissues) was determined as 200 µM; in data set [1] (other: increasing lumen concentrations up to 8 mM, 140 mM Na+, no inhibitor), 220 ± 70 µM.

The values above are taken from US20210299076A1, “AMINO ACID FORMULATIONS AND USES THEREOF” (University of Florida Research Foundation, Incorporated, priority 2012, published 2021).
